According to patent US20100267928A1, “ACTIVATABLE DIAGNOSTIC AND THERAPEUTIC COMPOUND” (priority 2007, published 2010):

Tested on: LN18 and U373 glioma cells
Settings: additive alone in RPMI medium, LN18 and U373 glioma cells
Experimental: Human malignant glioma cells (U373 and LN18) were seated into 25 cm^2 culture flasks which contained 3 ml RPMI medium. This was left as it is for one day so that enough matrix metalloprotenases (MMP-2) could accumulate.
In a second test the same compounds were again dissolved in the media of 12 flasks (130 μM), however now with MMP-2 inhibitor I (Calbiochem).
As a control four small flasks were used wherein both cell lines were incubated in a one day old medium with and also without APMA.
For the confocal laser scanning microscopy an inverted LSM510 laser scanning microscope (Karl Zeiss, Jena, Deutschland) (Objectives: LD Achroplan 40×0.6, Plan Neofluar 20×0.50, 40×0.75) was used [fluorescence excitation at 488 nm (argon-ion laser) and […] (helium-neon laser)]. Superimposed images of FITC- and alexa-stained cells were produced. All measurements were performed on living, non-fixed cells for three times.

SMILES: CCCCCCCC/C=C\CCCCCCCC(=O)NO [MMP-2 inhibitor I, reference compound]
- damage of the cell vitality by additive in the medium: did not result in a damage of the cell vitality
